Measurements from patent publication US20150174144A1, “TETRACYCLINE COMPOUNDS FOR TREATING NEURODEGENERATIVE DISORDERS” (PARATEK PHARMACEUTICALS, INC., priority 2012, published 2015).
Several values for one entry are separate records, joined by “and”; a condition that tells them apart may be missing. Equal entries are not always repeated. Where two headings read alike, the source gives them in different places. Values belong to the compound of their own block, whether it stands above or below them.

Legend:
[1] = system: cerebellar granule neurons; test: Glutamate-induced neurodegeneration in cerebellar granule neurons (MTT); format: cell-based, C57BL/6 mouse; conditions: Mus musculus, Neuron
Excerpt: The method for isolation of cerebellar granule neurons has been previously described in published studies. Neonate C57BL/6 mouse pups, 7-8 days old, are obtained. Heads are removed and rinsed in 70% alcohol and transfered to an 85 mm dish filled with PBS on ice. Heads are cut, the brains removed, and the cerebella dissected and placed in a 50 mm dish with PBS on ice. The meninges, choroids plexus and blood vessels are removed from the cerebellum and the cleaned organ is transferred to a 35 mm dish with Hank's buffered salt solution (HBSS) containing Ca^2+ and Mg^2+. Each cerebellum is cut into pieces and incubated with trypsin solution at 37° C. for 10 minutes, after which 0.5 mg/ml (final concentration) trypsin inhibitor and 0.1 mg/ml (final concentration) DNAse are added. After centrifugation, cerebellar fragments are resuspended in dissociation medium (HBSS with Ca^2+, Mg^2+, trypsin inhibitor, DNAse) and a single cell suspension generated by agitation with a Pasteur pipette. After the coarse debris settles, the supernatant (cell suspension) is passed through a cell strainer (40 μm, Becton Dickinson #1942501) into a 50 ml sterile tube and the cells centrifuged. Cells are washed and re-suspended in culture medium (BME Basal Medium containing 10% fetal bovine serum, 100 IU/ml penicillin/streptomycin, 10 mM HEPES, 25 mM KCl, 2 mM L-glutamine).
The cell suspension is transferred to poly-D-lysine-coated dishes and incubated for 25 min at 37° C. in 5% CO2. After incubation, the non-adherent cells are removed and counted with a hemocytometer. A suspension of 0.9×10^6 cells/ml is prepared in culture medium, and 100 μL volumes are added per well (250,000 cells/cm^2) in poly-D-Lysine coated 96-well plates. One day after plating, cytosine arabinoside (AraC) is added to a final concentration of 10 μM. After 6-8 days of in vitro culture, the neurons are ready to be used in the assay.
To test the activity of Compound 1 and minocycline, compounds were added to the neuron cultures at varying concentrations. Buffer was added to some cells as a negative control. After pre-incubation with compound for 30 minutes at 5% CO2, 37° C., glutamate was added at a final concentration of […] and the cells further incubated for 1 hour. Glutamate was not added to some cells as a positive control for cell survival. After the 1 hr period, cells were washed once with culture medium and 100 μL of fresh medium were added per well. Compounds were re-added to the cells and the cultures were incubated overnight at 5% CO2, 37° C. […] Spectrophotometric absorbance at wavelength 570 nm was measured using a microplate reader.
The MTT absorbance for non-stimulated cells was considered the 100% survival level.

[2] = Bioavailability in the CNS of the mouse; conditions: for concentration at 0.5 hr / concentration at 1 hr / concentration at 2 hr / concentration at 4 hr / Kp at 0.5 hr / Kp at 1 hr / Kp at 2 hr / Kp at 4 hr: ip, 10 mg/kg
Method: Compounds were administered via the indicated routes and blood samples were removed at various times up to 24 hr. Concentration of compound was determined by LC/MS.

MS = MS clinical studies, cited from earlier work
CYP450 = CYP450 inhibition or induction; format: in vitro ADME; conditions: pre-clinical ADME studies
hERG/ion channel = hERG/ion channel (Homo sapiens, UniProt Q12809); test: hERG/ion channel assays; conditions: pre-clinical safety studies
Chain of hERG/ion channel (Q12809 whole entry): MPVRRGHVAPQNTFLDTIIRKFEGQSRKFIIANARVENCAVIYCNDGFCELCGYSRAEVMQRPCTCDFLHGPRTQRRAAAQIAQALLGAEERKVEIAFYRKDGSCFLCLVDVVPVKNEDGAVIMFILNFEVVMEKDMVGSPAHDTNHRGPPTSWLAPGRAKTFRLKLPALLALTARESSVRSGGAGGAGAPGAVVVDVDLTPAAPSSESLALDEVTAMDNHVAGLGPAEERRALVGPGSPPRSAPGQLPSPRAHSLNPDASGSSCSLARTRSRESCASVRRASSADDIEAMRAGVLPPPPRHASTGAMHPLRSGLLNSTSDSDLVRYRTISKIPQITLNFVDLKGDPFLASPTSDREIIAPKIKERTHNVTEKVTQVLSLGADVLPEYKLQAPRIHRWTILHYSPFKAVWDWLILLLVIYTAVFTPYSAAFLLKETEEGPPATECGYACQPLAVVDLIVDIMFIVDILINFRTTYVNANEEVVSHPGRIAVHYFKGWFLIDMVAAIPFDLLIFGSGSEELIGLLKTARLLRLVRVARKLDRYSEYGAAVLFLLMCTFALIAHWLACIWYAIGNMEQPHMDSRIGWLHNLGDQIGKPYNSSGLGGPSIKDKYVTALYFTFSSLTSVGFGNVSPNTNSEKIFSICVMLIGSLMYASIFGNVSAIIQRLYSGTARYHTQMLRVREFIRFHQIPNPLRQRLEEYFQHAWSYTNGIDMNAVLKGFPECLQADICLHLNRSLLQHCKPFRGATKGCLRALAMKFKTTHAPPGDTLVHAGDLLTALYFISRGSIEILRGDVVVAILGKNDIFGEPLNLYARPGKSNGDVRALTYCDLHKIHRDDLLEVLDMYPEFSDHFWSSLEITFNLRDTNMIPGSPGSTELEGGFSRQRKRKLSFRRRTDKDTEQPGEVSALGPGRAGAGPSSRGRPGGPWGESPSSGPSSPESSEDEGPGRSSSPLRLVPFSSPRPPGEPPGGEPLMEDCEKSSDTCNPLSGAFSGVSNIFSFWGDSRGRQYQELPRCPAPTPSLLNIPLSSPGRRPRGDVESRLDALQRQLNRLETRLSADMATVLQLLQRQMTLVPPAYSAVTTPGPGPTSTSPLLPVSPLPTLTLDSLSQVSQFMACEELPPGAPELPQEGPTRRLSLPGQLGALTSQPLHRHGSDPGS

bacterial ribosome = test: Transcription/translation (TnT) in vitro assay of bacterial protein synthesis; format: biochemical
Method: The antibacterial activity of Compound 1 was evaluated against comparator compounds minocycline and doxycycline. Test compounds are considered to have antibacterial activity if they inhibit bacterial growth at test concentrations below 4 μM. […] Further, mechanistic evidence of their antibacterial activity was evaluated using the transcription/translation (TnT) in vitro assay which directly measures the bacterial cellular efficiency of protein synthesis with and without test compounds present.

[3] = system: focal cerebral ischemia (temporary MCA occlusion); test: Rat stroke model, 90 min temporary MCA occlusion; format: in vivo, Male Wistar rats; conditions: for Neurological score / Infarct volume (Means ± SD): temporary; for Infarct volume (Means ± SD): 24 hr after MCAO; for Effect on infarct volume: temporary occlusion
[4] = system: hippocampal neurons from Fmr1 KO mice; test: Dendritic spine development in hippocampal primary cultures; format: cell-based, mouse; conditions: FX hippocampal primary cultures, 20 μM, 17 hour treatment, 18 DIV
Method: The purpose of this study was to investigate the direct effects of tetracycline compounds, such as minocycline and Compound 1, on dendritic spine development in the cell derived from the mouse model of Fragile X Syndrome (FXS) and their wild-type litter mate control mouse embryos.
The compartmentalized cell culture was used in the experiments. Neuronal primary cultures of the hippocampus at embryonic day 16 (E16) were prepared from Fmr1 KO and WT litter mate control mouse embryos, and three independent cultures were used for the analysis. The in vitro system with […] was used to monitor dendritic spine morphogenesis during a time-course of culture, and immunostaining with synaptophysin was used to distinguish presynaptic boutons. The dendritic spines were usually formed between 7 and 14 days in vitro (DIV). By 14 DIV most dendiritic protrusions were spines; however, their maturation continued until 21 DIV. The effects of tetracycline compounds were evaluated at 18 DIV. Confocal Imagining analysis was performed at the University of Chile imaging center. Quantitative analysis of dentritic spine length, size distribution for dendritic spine heads and morphology of the hippocampal neurons from WT control and Fmr1 KO mice was performed after 17 hour treatment with 20 μM tetracycline compounds or with PBS control.

[5] = Table 4, unit inferred, read-out: Neuroprotection (mouse CGN)
[6] = concentration at which 50% of the maximum response is observed, read-out: EC50, survival of glutamate-stimulated cerebellar granule neurons
[7] = 20 mg/kg i.v. at 30 min, 6 hr after MCAO
[8] = 40 mg/kg i.v. at 60 min, 6 hr after MCAO
[9] = 40 mg/kg i.v. at 3 hr, 8 hr after MCAO

- concentration at 0.5 hr ([2]; brain): 138 ng/g
- concentration at 1 hr ([2]; brain): 380 ng/g
- concentration at 2 hr ([2]; brain): 317 ng/g
- concentration at 4 hr ([2]; brain): 327 ng/g
- Kp at 0.5 hr ([2]; brain/plasma): 0.095
- Kp at 1 hr ([2]; brain/plasma): 0.253
- Kp at 2 hr ([2]; brain/plasma): 0.508
- Kp at 4 hr ([2]; brain/plasma): 0.688
- AUC ([2]; monkey, iv, 5 mg/kg): 55.8 µM·h
- Cmax ([2]; monkey, iv, 5 mg/kg): 29.9 µM
- half-life ([2]; monkey, iv, 5 mg/kg): 10.4 h
- AUC ([2]; monkey, po, 5 mg/kg): 44.6 µM·h
- Cmax ([2]; monkey, po, 5 mg/kg): 4.4 µM
- Tmax ([2]; monkey, po, 5 mg/kg): 3 h
- bioavailability ([2]; monkey, po, 5 mg/kg): 80.1%
- concentration at 0.5 hr ([2]; plasma): 1450 ng/mL
- concentration at 1 hr ([2]; plasma): 1500 ng/mL
- concentration at 2 hr ([2]; plasma): 623 ng/mL
- concentration at 4 hr ([2]; plasma): 475 ng/mL
- AUC ([2]; rat, iv, 1 mg/kg): 2.4 µM·h
- Cmax ([2]; rat, iv, 1 mg/kg): 0.93 µM
- half-life ([2]; rat, iv, 1 mg/kg): 3.6 h
- AUC ([2]; rat, po, 5 mg/kg): 3.6 µM·h
- Cmax ([2]; rat, po, 5 mg/kg): 0.4 µM
- Tmax ([2]; rat, po, 5 mg/kg): 1.7 h
- bioavailability ([2]; rat, po, 5 mg/kg): 30.7%
SMILES: CN(C)c1ccc(O)c2c1C[C@H]1C[C@H]3[C@H](N(C)C)C(O)=C(C(N)=O)C(=O)[C@@]3(O)C(O)=C1C2=O [Minocycline, minocycline, reference compound]
- EC50 [1, 5]: 1400 ± 100 nM
- EC50 [1, 6]: 1400 nM
- potential side effects (MS): Mild Nausea
- potential side effects (MS; listed as minocycline): Mild nausea

SMILES: CCc1cc(N(C)C)c2c(c1O)C(=O)C1=C(O)[C@]3(O)C(=O)C(C(N)=O)=C(O)[C@@H](N(C)C)[C@@H]3C[C@@H]1C2 [Compound 1]
- EC50 [1, 5]: 2600 ± 900 nM
- EC50 [1, 6]: 2600 nM
- AUC ([2]; monkey, iv, 5 mg/kg): 70 µM·h
- Cmax ([2]; monkey, iv, 5 mg/kg): 28.5 µM
- half-life ([2]; monkey, iv, 5 mg/kg): 5.7 h
- AUC ([2]; monkey, po, 5 mg/kg): 46.7 µM·h
- Cmax ([2]; monkey, po, 5 mg/kg): 8.6 µM
- Tmax ([2]; monkey, po, 5 mg/kg): 3 h
- bioavailability ([2]; monkey, po, 5 mg/kg): 66.9%
- Kp at 0.5 hr ([2]; mouse, in vivo): 0.179
- Kp at 1 hr ([2]; mouse, in vivo): 0.284
- Kp at 2 hr ([2]; mouse, in vivo): 0.568
- Kp at 4 hr ([2]; mouse, in vivo): 1.17
- concentration at 0.5 hr ([2]; mouse, in vivo): 6860 ng/mL and 1230 ng/g
- concentration at 1 hr ([2]; mouse, in vivo): 6360 ng/mL and 1810 ng/g
- concentration at 2 hr ([2]; mouse, in vivo): 7020 ng/mL and 3990 ng/g
- concentration at 4 hr ([2]; mouse, in vivo): 3680 ng/mL and 4310 ng/g
- half-life ([2]; rat): 3.5 h
- AUC ([2]; rat, iv, 5 mg/kg): 54.4 µM·h
- Cmax ([2]; rat, iv, 5 mg/kg): 27.9 µM
- AUC ([2]; rat, po, 5 mg/kg): 14.3 µM·h
- Cmax ([2]; rat, po, 5 mg/kg): 1.25 µM
- Tmax ([2]; rat, po, 5 mg/kg): 2 h
- bioavailability ([2]; rat, po, 5 mg/kg): 26%
- Effects in CYP450 inhibition or induction (CYP450): no significant effects
- Effects in hERG/ion channel assays (hERG/ion channel): no significant effects
- Protein Synthesis Inhibition (IC50) (bacterial ribosome): >100 µg/mL
- Neurological score [3, 7]: 1.5 ± 0.5
- Infarct volume (Means ± SD) [3, 7]: 139.2 ± 32.2 mm3
- Neurological score [3, 8]: 1.3 ± 0.5
- Infarct volume (Means ± SD) [3, 8]: 125.9 ± 49.9 mm3
- Neurological score [3, 9]: 1.4 ± 0.5
- Infarct volume (Means ± SD) [3, 9]: 172.8 ± 45.3 mm3
- Effect on infarct volume ([3]; treatment initiated three hours post occlusion): did not demonstrate an ability to reduce infarct volume
- Effect on infarct volume ([3]; treatment started at 30 or 60 min after MCA occlusion): statistically significant reductions in infarct volume
- Spine number [4]: 0.28±0.05
